Measurements as given in PubChem BioAssay (NCI).
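At the GI50, growth is halved. TGI: total growth inhibition.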

Experiments:
Test in all cases: DTP human tumour cell line panel, 384-well format
NCI-H322M lung = test system: NCI-H322M lung
OVCAR-5 ovarian = test system: OVCAR-5 ovarian
HOP-92 NSCLC = test system: HOP-92 NSCLC
DU-145 prostate = test system: DU-145 prostate
SK-MEL-28 melanoma = test system: SK-MEL-28 melanoma
MOLT-4 leukemia = test system: MOLT-4 leukemia
SN12C renal = test system: SN12C renal
OVCAR-4 ovarian = test system: OVCAR-4 ovarian
CCRF-CEM leukemia = test system: CCRF-CEM leukemia
TK-10 renal = test system: TK-10 renal
RXF 393 renal = test system: RXF 393 renal
MDA-MB-435 melanoma = test system: MDA-MB-435 melanoma
CAKI-1 renal = test system: CAKI-1 renal
SNB-19 CNS = test system: SNB-19 CNS
MCF7 breast = test system: MCF7 breast
HT29 colon = test system: HT29 colon
SNB-75 CNS = test system: SNB-75 CNS
HCC-2998 colon = test system: HCC-2998 colon
OVCAR-3 ovarian = test system: OVCAR-3 ovarian
K-562 leukemia = test system: K-562 leukemia
MDA-MB-231 breast = test system: MDA-MB-231 breast
A549 NSCLC = test system: A549 NSCLC
IGROV1 ovarian = test system: IGROV1 ovarian
SW-620 colon = test system: SW-620 colon
HS 578T breast = test system: HS 578T breast
SK-OV-3 ovarian = test system: SK-OV-3 ovarian
U251 glioblastoma = test system: U251 glioblastoma
HL-60(TB) leukemia = test system: HL-60(TB) leukemia
MALME-3M melanoma = test system: MALME-3M melanoma
SF-295 CNS = test system: SF-295 CNS
MDA-MB-468 breast = test system: MDA-MB-468 breast
NCI-H23 lung = test system: NCI-H23 lung
EKVX NSCLC = test system: EKVX NSCLC
HCT-15 colon = test system: HCT-15 colon
COLO 205 colon = test system: COLO 205 colon
SF-268 CNS = test system: SF-268 CNS
NCI/ADR-RES ovarian = test system: NCI/ADR-RES ovarian
UACC-257 melanoma = test system: UACC-257 melanoma
HOP-62 NSCLC = test system: HOP-62 NSCLC
HCT-116 colon = test system: HCT-116 colon
M14 melanoma = test system: M14 melanoma
T-47D breast = test system: T-47D breast
A498 renal = test system: A498 renal
NCI-H522 lung = test system: NCI-H522 lung
786-0 renal = test system: 786-0 renal
LOX IMVI melanoma = test system: LOX IMVI melanoma
SR leukemia = test system: SR leukemia
NCI-H226 lung = test system: NCI-H226 lung
SK-MEL-5 melanoma = test system: SK-MEL-5 melanoma
BT-549 breast = test system: BT-549 breast
SF-539 CNS = test system: SF-539 CNS
UO-31 renal = test system: UO-31 renal
RPMI-8226 leukemia = test system: RPMI-8226 leukemia
OVCAR-8 ovarian = test system: OVCAR-8 ovarian
PC-3 prostate = test system: PC-3 prostate
ACHN renal = test system: ACHN renal
KM12 colon = test system: KM12 colon
NCI-H460 NSCLC = test system: NCI-H460 NSCLC

## Nc1ccccc1NC(=O)c1ccc(CNC(=O)OCc2cccnc2)cc1
NCI-H322M lung
  GI50: 1550 nM
  TGI: 6500 nM
OVCAR-5 ovarian
  GI50: 727 nM
  TGI: 5000 nM
HOP-92 NSCLC
  GI50: 256 nM
  TGI: 920 nM
DU-145 prostate
  GI50: 338 nM
  TGI: 6410 nM
SK-MEL-28 melanoma
  GI50: 234 nM
  TGI: 493 nM
MOLT-4 leukemia
  GI50: 164 nM
  TGI: 303 nM
SN12C renal
  GI50: 1600 nM
  TGI: 3280 nM
OVCAR-4 ovarian
  GI50: 1330 nM
  TGI: 3630 nM
CCRF-CEM leukemia
  GI50: 190 nM
  TGI: 368 nM
TK-10 renal
  GI50: 441 nM
  TGI: 3820 nM
RXF 393 renal
  GI50: 239 nM
  TGI: 918 nM
MDA-MB-435 melanoma
  GI50: 652 nM
  TGI: 2400 nM
CAKI-1 renal
  GI50: 918 nM
  TGI: 2950 nM
SNB-19 CNS
  GI50: 1780 nM
  TGI: 6060 nM
MCF7 breast
  GI50: 404 nM
  TGI: 1940 nM
HT29 colon
  GI50: 563 nM
  TGI: 2560 nM
SNB-75 CNS
  GI50: 1130 nM
  TGI: 13700 nM
HCC-2998 colon
  GI50: 558 nM
  TGI: 1940 nM
OVCAR-3 ovarian
  GI50: 936 nM
  TGI: 3130 nM
K-562 leukemia
  GI50: 185 nM
  TGI: 1160 nM
MDA-MB-231 breast
  GI50: 511 nM
  TGI: 2860 nM
A549 NSCLC
  GI50: 1910 nM
  TGI: 14700 nM
IGROV1 ovarian
  GI50: 363 nM
  TGI: 1720 nM
SW-620 colon
  GI50: 521 nM
  TGI: 2160 nM
HS 578T breast
  GI50: 271 nM
  TGI: 1070 nM
SK-OV-3 ovarian
  GI50: 1500 nM
  TGI: 5100 nM
U251 glioblastoma
  GI50: 607 nM
  TGI: 1910 nM
HL-60(TB) leukemia
  GI50: 206 nM
  TGI: 350 nM
MALME-3M melanoma
  GI50: 109 nM
  TGI: 255 nM
SF-295 CNS
  GI50: 878 nM
  TGI: 2110 nM
MDA-MB-468 breast
  GI50: 244 nM
  TGI: 713 nM
NCI-H23 lung
  GI50: 790 nM
  TGI: 4450 nM
EKVX NSCLC
  GI50: 2860 nM
  TGI: 90500 nM
HCT-15 colon
  GI50: 1440 nM
  TGI: 9090 nM
COLO 205 colon
  GI50: 775 nM
  TGI: 2420 nM
SF-268 CNS
  GI50: 220 nM
  TGI: 719 nM
NCI/ADR-RES ovarian
  GI50: 1460 nM
  TGI: 4020 nM
UACC-257 melanoma
  GI50: 375 nM
  TGI: 1380 nM
HOP-62 NSCLC
  GI50: 785 nM
  TGI: 3620 nM
HCT-116 colon
  GI50: 295 nM
  TGI: 1190 nM
M14 melanoma
  GI50: 658 nM
  TGI: 5660 nM
T-47D breast
  GI50: 487 nM
  TGI: 1220 nM
A498 renal
  GI50: 399 nM
  TGI: 1860 nM
NCI-H522 lung
  GI50: 673 nM
  TGI: 2680 nM
786-0 renal
  GI50: 2100 nM
  TGI: 14900 nM
LOX IMVI melanoma
  GI50: 357 nM
  TGI: 1050 nM
SR leukemia
  GI50: 31 nM
  TGI: 105 nM
NCI-H226 lung
  GI50: 1070 nM
  TGI: 4880 nM
SK-MEL-5 melanoma
  GI50: 243 nM
  TGI: 457 nM
BT-549 breast
  GI50: 467 nM
  TGI: 3320 nM
SF-539 CNS
  GI50: 1630 nM
  TGI: 14800 nM
UO-31 renal
  GI50: 1660 nM
  TGI: 13100 nM
RPMI-8226 leukemia
  GI50: 20.5 nM
  TGI: 45.3 nM
OVCAR-8 ovarian
  GI50: 368 nM
  TGI: 2090 nM
PC-3 prostate
  GI50: 1040 nM
  TGI: 16400 nM
ACHN renal
  GI50: 600 nM
  TGI: 2620 nM
KM12 colon
  GI50: 2240 nM
  TGI: 19900 nM
NCI-H460 NSCLC
  GI50: 352 nM
  TGI: 7660 nM
